In the supplement of paper PMC10307832:

Tests used:
Assay in all cases: relative viability (nuclei count vs DMSO), 5 days (fraction); higher = more cells survive
XMD13-2 + Pemetrexed = compound: C1CC1C(=O)NC2=NNC3=C2C=CC(=C3)C4=CC(=CC=C4)C(=O)NC5CC5 [XMD13-2] + Nc1nc2[nH]cc(CCc3ccc(C(=O)N[C@@H](CCC(=O)O)C(=O)O)cc3)c2c(=O)[nH]1 [Pemetrexed] (partner 0.2 µM)
Outline: (§1)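 Medians of duplicate plates are given as relative viability. That measure is the nuclei count in treated wells divided by the count in vehicle wells. Counts were taken on 4× images of lung cancer cell lines in 1536-well plates, 5 days after pin-tool dosing the day after seeding with one drug alone or a fixed anchor-drug dose plus five library-drug doses (not always all listed) in √10 steps.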

XMD13-2 + Bortezomib = compound: C1CC1C(=O)NC2=NNC3=C2C=CC(=C3)C4=CC(=CC=C4)C(=O)NC5CC5 [XMD13-2] + CC(C)C[C@H](NC(=O)[C@H](Cc1ccccc1)NC(=O)c1cnccn1)B(O)O [Bortezomib] (partner 0.002 µM)
Outline: as §1

ALW-II-49-7 + Alpelisib = compound: Cc1ccc(C(=O)Nc2cccc(C(F)(F)F)c2)cc1Nc1cncc(C(N)=O)c1 [ALW-II-49-7] + Cc1nc(NC(=O)N2CCC[C@H]2C(N)=O)sc1-c1ccnc(C(C)(C)C(F)(F)F)c1 [Alpelisib] (partner 2 µM)
Outline: as §1

Dasatinib + Luminespib = compound: Cc1nc(Nc2ncc(C(=O)Nc3c(C)cccc3Cl)s2)cc(N2CCN(CCO)CC2)n1 [Dasatinib] + CCNC(=O)c1noc(-c2cc(C(C)C)c(O)cc2O)c1-c1ccc(CN2CCOCC2)cc1 [Luminespib] (partner 0.01 µM)
Outline: as §1

Cell Line	relative viability (XMD13-2 + Pemetrexed; first compound 0.05 µM)	relative viability (XMD13-2 + Pemetrexed; first compound 0.1581 µM)	relative viability (XMD13-2 + Pemetrexed; first compound 0.5 µM)	relative viability (XMD13-2 + Pemetrexed; first compound 1.581 µM)	relative viability (XMD13-2 + Pemetrexed; first compound 5 µM)	relative viability (XMD13-2 + Bortezomib; first compound 0.05 µM)	relative viability (XMD13-2 + Bortezomib; first compound 0.1581 µM)	relative viability (XMD13-2 + Bortezomib; first compound 0.5 µM)	relative viability (XMD13-2 + Bortezomib; first compound 1.581 µM)	relative viability (XMD13-2 + Bortezomib; first compound 5 µM)	relative viability (ALW-II-49-7 + Alpelisib; first compound 0.08 µM)	relative viability (ALW-II-49-7 + Alpelisib; first compound 0.253 µM)	relative viability (ALW-II-49-7 + Alpelisib; first compound 0.8 µM)	relative viability (ALW-II-49-7 + Alpelisib; first compound 2.53 µM)	relative viability (ALW-II-49-7 + Alpelisib; first compound 8 µM)	relative viability (Dasatinib + Luminespib; first compound 0.005 µM)	relative viability (Dasatinib + Luminespib; first compound 0.01581 µM)	relative viability (Dasatinib + Luminespib; first compound 0.05 µM)	relative viability (Dasatinib + Luminespib; first compound 0.1581 µM)	relative viability (Dasatinib + Luminespib; first compound 0.5 µM)
NCI-H838	0.249	0.226	0.263	0.251	0.254	1.15	0.886	1.03	0.81	0.986	0.847	1.13	1	1.13	0.987	0.265	0.24	0.196	0.189	0.158
NCI-H520	0.704	0.636	0.665	0.573	0.442	0.978	0.802	0.66	0.329	0.365	0.799	0.865		0.964	0.954	0.184	0.209	0.221	0.194	0.197
NCI-H2347	0.458	0.443	0.446	0.453	0.45	1.02	0.977	1.09	0.952	1.09	1.08	0.98	0.986	0.869	0.873	0.404	0.359	0.266	0.23	0.276
NCI-H441	0.298	0.24	0.233	0.234	0.263	0.652	0.49	0.524	0.464	0.594	0.854	0.771	0.768	0.48	0.591	0.372	0.307	0.225	0.196	0.193
NCI-H2405	1.18	1.02	1.11		1.07	1.07	0.964	0.957	0.926	0.991	0.741	0.829	0.743	0.248	0.753	0.501	0.309	0.309	0.247	0.142
HCC-15	0.237	0.204	0.218	0.224	0.214	1.12	0.994	1.11	0.981	1.05	0.901	0.931	0.949	0.907	0.845	0.381	0.316	0.248	0.247	0.108
